Numbering of substitutions follows the chain as printed.
Key:
AR protein = biological target: T1, AR protein (Homo sapiens, UniProt P10275, T878A); experiment: Cycloheximide chasing assay of AR degradation in LNCaP cells; format: cell-based; conditions: in the presence of cycloheximide (CHX) (FIG. 7)
T1 sequence (P10275 1-920 T878A): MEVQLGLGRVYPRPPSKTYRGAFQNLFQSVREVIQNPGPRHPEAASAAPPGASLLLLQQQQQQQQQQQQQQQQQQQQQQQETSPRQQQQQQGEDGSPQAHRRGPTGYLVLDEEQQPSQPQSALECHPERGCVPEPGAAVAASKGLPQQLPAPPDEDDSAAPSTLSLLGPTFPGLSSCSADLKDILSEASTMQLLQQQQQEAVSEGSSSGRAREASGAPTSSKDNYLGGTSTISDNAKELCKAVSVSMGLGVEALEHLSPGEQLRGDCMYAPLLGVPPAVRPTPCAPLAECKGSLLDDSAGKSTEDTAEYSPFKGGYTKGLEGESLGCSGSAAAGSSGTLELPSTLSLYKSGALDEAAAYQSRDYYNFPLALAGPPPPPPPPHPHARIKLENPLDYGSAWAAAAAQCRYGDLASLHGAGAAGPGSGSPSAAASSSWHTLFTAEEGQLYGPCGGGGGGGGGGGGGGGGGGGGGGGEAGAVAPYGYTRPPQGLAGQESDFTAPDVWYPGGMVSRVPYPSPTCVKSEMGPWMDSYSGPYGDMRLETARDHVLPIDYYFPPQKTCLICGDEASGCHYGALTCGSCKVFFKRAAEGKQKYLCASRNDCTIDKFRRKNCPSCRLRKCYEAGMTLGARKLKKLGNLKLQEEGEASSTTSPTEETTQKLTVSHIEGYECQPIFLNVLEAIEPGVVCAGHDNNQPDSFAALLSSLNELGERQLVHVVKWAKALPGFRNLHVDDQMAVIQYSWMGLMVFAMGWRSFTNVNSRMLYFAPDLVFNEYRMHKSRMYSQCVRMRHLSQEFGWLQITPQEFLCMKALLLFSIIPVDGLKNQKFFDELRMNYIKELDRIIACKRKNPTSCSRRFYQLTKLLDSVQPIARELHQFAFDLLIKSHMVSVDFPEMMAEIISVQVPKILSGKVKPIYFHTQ
Protocol: AR protein "degradation" in prostate cancer cells was measured by using cycloheximide (a protein synthesis inhibitor) chasing assay method. Briefly, LNCaP cells were incubated with testing ASC compound at the designated concentrations for 24 hours. Subsequently, cycloheximide was added to the cells at a concentration of 15 µg/ml to block new protein synthesis. After incubation, cells were harvested at designated time periods and the resultant change in AR protein levels were analysed using Western Blot analysis as described above.

[1] = tested on: CWR22Rv1 cells (human prostate cancer); experiment: MTT cell growth assay, CWR22Rv1 cells; format: cell-based; conditions: Homo sapiens, 120 h, 5 days, read-out: Inhibition of Tumor cells growth IC50
Protocol: The MTT cell proliferation assay was applied in the present invention to detect the capability of compounds to suppress or inhibit prostate cancer cells growth. […] Briefly, 1 x 10^3 LNCaP or CWR22Rv1 cells suspended in complete medium were plated into each well of a 96-well Microtest III tissue culture plate (Falcon, NJ). Two days later, the medium was replaced with RPMI-1640 medium containing 10% charcoal/dextran-deprived FBS (hormone-deprived fetal bovine serum). Testing compounds were added to the medium at indicated concentrations with or without 1 nM DHT and cells were cultured for 5 days in an incubator (at 37 °C). MTT substrate solution (5 mg/ml in PBS) in 1/10 of volume was added to the cells in each well at 2 hours before harvesting. After 2 hour incubation, the plates were centrifuged (10 min at 1,000 rpm) and the supernatant from each well was carefully removed. A 100 µl of lysis buffer (50% dimethyl formamide, 5% sodium dodecyl sulphate, 0.35 M acetic acid, and 50 mM HCl) was added to each well to lyse the cells and dissolved tetrazolium in each well. The relative quantity of enzyme activity from each well was measured based on absorbance read at a wavelength of 450 nm using a Bio-RAD BenchMark microplate reader. Data derived from the MTT assay were also verified by the actual cell count and cell morphology on a separate plate set up in parallel.
For inhibition of tumor cell growth, in vitro, cells were growth in the presence of testing compounds for 5 days, and the cell growth was assayed by standard MTT assay. […] Table 2: Biological activity of Compounds and Derivatives having (1E, 6E)-1,7-bis-(3,4-dimethoxyphenyl)-4,4-disubstituted-hepta-1,6-diene-3,5-dione OR (1E, 10E)-1,11-bis(substituted phenyl)- 6,6-disubstituted undeca-1,3,8,10-tetraene-5,7-dione structural scaffold

Androgen Receptor (AR) [2] = biological target: T2, Androgen Receptor (AR) (Homo sapiens, UniProt P10275, H875Y, form not given); experiment: Western Blot analysis of AR protein expression in CWR22Rv1 cells; format: cell-based; conditions: various concentrations, Western Blot (FIG. 6)
T2 sequence (P10275 1-920 H875Y): T1 sequence (P10275 1-920 T878A) with H875Y, A878T

Androgen Receptor (AR) [3] = biological target: T3, Androgen Receptor (AR) (Homo sapiens, UniProt P10275, T878A); experiment: Western Blot analysis of AR protein expression in LNCaP cells; conditions: various concentrations, Western Blot (FIG. 6)
T3 sequence (P10275 1-920 T878A): T1 sequence (P10275 1-920 T878A)

SMILES	AR protein degradation (AR protein)	IC50 [1] [µM]	reducing endogenous AR expression (Androgen Receptor (AR) [2])	reducing endogenous AR expression (Androgen Receptor (AR) [3])
COc1ccc(C=CC(=O)C=C(O)C=Cc2ccc(OC)c(OC)c2)cc1OC [ASC-J9®, 1,7-Bis-(3,4-dimethoxy-phenyl)-5-hydroxy-hepta-1,4,6-trien-3-one, reference compound]	enhances AR protein degradation	4		
COc1ccc(/C=C/C(=O)C(C(=O)/C=C/c2ccc(OC)c(OC)c2)=C(O)/C=C/c2ccc(OC)c(OC)c2)cc1OC [ASC-JM4]			capable of reducing endogenous AR expression	capable of reducing endogenous AR expression
COc1ccc(/C=C/C(=O)C2CC(c3ccc(OC)c(OC)c3)(C(C(=O)/C=C/c3ccc(OC)c(OC)c3)C(=O)/C=C/c3ccc(OC)c(OC)c3)CC2=O)cc1OC (centres unmarked) [ASC-JM5]	enhances AR protein degradation			
